From patent publication US7005139B2, “Compositions and methods for the targeted delivery of agents to treat liver cancer” (Hong Kong University of Science and Technology, priority 2001, dated 2006)

System: HepG2 tumors
Experiment: Anti-tumor efficacy in HepG2-tumor bearing nude mice
Format: in vivo, nu/nu BALB/c nude mice
Conditions: s.c. HepG2 tumors, i.v. 1 mg/kg dox equivalents every other day from day 2, tumor volume, FIG. 4
Method: Nude mice were inoculated s.c. with 4×10^6 HepG2 cells on day 0. On day 2, groups of five mice were injected intravenously with 1 mg/kg dox equivalents of D, DL or DLG. The control group received injections of saline (S). Injections were carried out every other day. The tumor size was measured weekly and the volume calculated using the formula 0.52×L×W×H. Each point represents the mean volume from each group of 5 mice.
Nude mice were inoculated s.c. with 4×10^6 HepG2 cells on day 0. On day 2, groups of five mice were injected intravenously with 1 mg/kg dox equivalents of D, DL or DLG. The control group received injections of saline. Injections were carried out every other day. All mice were sacrificed on day 35. The tumors were removed and weighted. Each column represents the mean ±s.d. (n=5). *p<0.05 statistically significant difference as compared to control (student's t-test).
Nude mice (body weight 20–25 g; 6–8 weeks) were inoculated subcutaneously (s.c.) with a suspension of HepG2 cells (4×10^6/mouse) on Day 0. On Day 2, groups of five mice were injected intravenously with 1 mg/kg equivalents of D, DL or DLG. The Control group received injections of saline. Injections were carried out every other day. Tumor volume was continuously monitored using a Vernier caliper. Measurements were taken weekly and volumes were calculated according to the formula (L×W×H×0.52). […]

For COc1cccc2c1C(=O)c1c(O)c3c(c(O)c1C2=O)C[C@@](O)(C(=O)CO)C[C@@H]3O[C@H]1C[C@H](N)[C@H](O)[C@H](C)O1.Cl [D, doxorubicin hydrochloride], the tumor growth inhibition was “about 40%”.
